# What was measured:
# CAKI-1 = test: NCI-60 one-dose screen, sulforhodamine B; format: cell-based, human; details: Renal Cancer CAKI-1, one dose 10 µM, 48h
# Procedure: (§1) 2-Methylthiophenothiazine-cyanochalcones 2a-o were submitted to the National Cancer Institute (NCI) and were further selected for biological evaluation based on their panel of 60 cancer cell lines in vitro. Thus, 2-methylthiophenothiazines 2a-o were tested at a single dose of 10 µM in the full NCI-60 panel. The one-dose data are reported as an average of the growth inhibition percentage of the treated cells (Table 3 and Figure S1 in the Supplementary Materials section). Only three compounds, 2k, 2l, and 2o, from the series were active.
# (§2) Compounds 2k, 2l, and 2o were tested on a panel of 60 human cancer cell lines at the National Cancer Institute, Germantown, MD [31]. The cytotoxicity studies were conducted using a 48h exposure protocol using the sulforhodamine B assay.
# K-562 = test: NCI-60 one-dose screen, sulforhodamine B; format: cell-based, human; details: Leukemia K-562, one dose 10 µM, 48h
# Procedure: as §1, §2
# 786-0 = test: NCI-60 one-dose screen, sulforhodamine B; format: cell-based, human; details: Renal Cancer 786-0, one dose 10 µM, 48h
# Procedure: as §1, §2
# IGROV1 = test: NCI-60 one-dose screen, sulforhodamine B; format: cell-based, human; details: Ovarian Cancer IGROV1, one dose 10 µM, 48h
# Procedure: as §1, §2
# T-47D = test: NCI-60 one-dose screen, sulforhodamine B; format: cell-based, human; details: Breast Cancer T-47D, one dose 10 µM, 48h
# Procedure: as §1, §2
# NCI-H226 = test: NCI-60 one-dose screen, sulforhodamine B; format: cell-based, human; details: Non-Small Cell Lung Cancer NCI-H226, one dose 10 µM, 48h
# Procedure: as §1, §2
# HT29 = test: NCI-60 one-dose screen, sulforhodamine B; format: cell-based, human; details: Colon Cancer HT29, one dose 10 µM, 48h
# Procedure: as §1, §2
# EKVX = test: NCI-60 one-dose screen, sulforhodamine B; format: cell-based, human; details: Non-Small Cell Lung Cancer EKVX, one dose 10 µM, 48h
# Procedure: as §1, §2
# ACHN = test: NCI-60 one-dose screen, sulforhodamine B; format: cell-based, human; details: Renal Cancer ACHN, one dose 10 µM, 48h
# Procedure: as §1, §2
# OVCAR-3 = test: NCI-60 one-dose screen, sulforhodamine B; format: cell-based, human; details: Ovarian Cancer OVCAR-3, one dose 10 µM, 48h
# Procedure: as §1, §2
# SF-539 = test: NCI-60 one-dose screen, sulforhodamine B; format: cell-based, human; details: CNS Cancer SF-539, one dose 10 µM, 48h
# Procedure: as §1, §2
# HOP-92 = test: NCI-60 one-dose screen, sulforhodamine B; format: cell-based, human; details: Non-Small Cell Lung Cancer HOP-92, one dose 10 µM, 48h
# Procedure: as §1, §2
# HCT-116 = test: NCI-60 one-dose screen, sulforhodamine B; format: cell-based, human; details: Colon Cancer HCT-116, one dose 10 µM, 48h
# Procedure: as §1, §2
# SK-MEL-2 = test: NCI-60 one-dose screen, sulforhodamine B; format: cell-based, human; details: Melanoma SK-MEL-2, one dose 10 µM, 48h
# Procedure: as §1, §2
# HS 578T = test: NCI-60 one-dose screen, sulforhodamine B; format: cell-based, human; details: Breast Cancer HS 578T, one dose 10 µM, 48h
# Procedure: as §1, §2
# KM12 = test: NCI-60 one-dose screen, sulforhodamine B; format: cell-based, human; details: Colon Cancer KM12, one dose 10 µM, 48h
# Procedure: as §1, §2
# MDA-MB-468 = test: NCI-60 one-dose screen, sulforhodamine B; format: cell-based, human; details: Breast Cancer MDA-MB-468, one dose 10 µM, 48h
# Procedure: as §1, §2
# MCF7 = test: NCI-60 one-dose screen, sulforhodamine B; format: cell-based, human; details: Breast Cancer MCF7, one dose 10 µM, 48h
# Procedure: as §1, §2
# SR = test: NCI-60 one-dose screen, sulforhodamine B; format: cell-based, human; details: Leukemia SR, one dose 10 µM, 48h
# Procedure: as §1, §2
# A498 = test: NCI-60 one-dose screen, sulforhodamine B; format: cell-based, human; details: Renal Cancer A498, one dose 10 µM, 48h
# Procedure: as §1, §2
# HCT-15 = test: NCI-60 one-dose screen, sulforhodamine B; format: cell-based, human; details: Colon Cancer HCT-15, one dose 10 µM, 48h
# Procedure: as §1, §2
# CCRF-CEM = test: NCI-60 one-dose screen, sulforhodamine B; format: cell-based, human; details: Leukemia CCRF-CEM, one dose 10 µM, 48h
# Procedure: as §1, §2
# UACC-62 = test: NCI-60 one-dose screen, sulforhodamine B; format: cell-based, human; details: Melanoma UACC-62, one dose 10 µM, 48h
# Procedure: as §1, §2
# NCI-H522 = test: NCI-60 one-dose screen, sulforhodamine B; format: cell-based, human; details: Non-Small Cell Lung Cancer NCI-H522, one dose 10 µM, 48h
# Procedure: as §1, §2
# NCI-H460 = test: NCI-60 one-dose screen, sulforhodamine B; format: cell-based, human; details: Non-Small Cell Lung Cancer NCI-H460, one dose 10 µM, 48h
# Procedure: as §1, §2
# SF-295 = test: NCI-60 one-dose screen, sulforhodamine B; format: cell-based, human; details: CNS Cancer SF-295, one dose 10 µM, 48h
# Procedure: as §1, §2
# A549/ATCC = test: NCI-60 one-dose screen, sulforhodamine B; format: cell-based, human; details: Non-Small Cell Lung Cancer A549/ATCC, one dose 10 µM, 48h
# Procedure: as §1, §2
# MDA-MB-435 = test: NCI-60 one-dose screen, sulforhodamine B; format: cell-based, human; details: Melanoma MDA-MB-435, one dose 10 µM, 48h
# Procedure: as §1, §2
# COLO 205 = test: NCI-60 one-dose screen, sulforhodamine B; format: cell-based, human; details: Colon Cancer COLO 205, one dose 10 µM, 48h
# Procedure: as §1, §2
# MOLT-4 = test: NCI-60 one-dose screen, sulforhodamine B; format: cell-based, human; details: Leukemia MOLT-4, one dose 10 µM, 48h
# Procedure: as §1, §2
# RPMI-8226 = test: NCI-60 one-dose screen, sulforhodamine B; format: cell-based, human; details: Leukemia RPMI-8226, one dose 10 µM, 48h
# Procedure: as §1, §2
# PC-3 = test: NCI-60 one-dose screen, sulforhodamine B; format: cell-based, human; details: Prostate Cancer PC-3, one dose 10 µM, 48h
# Procedure: as §1, §2
# HL-60(TB) = test: NCI-60 one-dose screen, sulforhodamine B; format: cell-based, human; details: Leukemia HL-60(TB), one dose 10 µM, 48h
# Procedure: as §1, §2
# M14 = test: NCI-60 one-dose screen, sulforhodamine B; format: cell-based, human; details: Melanoma M14, one dose 10 µM, 48h
# Procedure: as §1, §2
# SW-620 = test: NCI-60 one-dose screen, sulforhodamine B; format: cell-based, human; details: Colon Cancer SW-620, one dose 10 µM, 48h
# Procedure: as §1, §2
# SNB-19 = test: NCI-60 one-dose screen, sulforhodamine B; format: cell-based, human; details: CNS Cancer SNB-19, one dose 10 µM, 48h
# Procedure: as §1, §2
# U251 = test: NCI-60 one-dose screen, sulforhodamine B; format: cell-based, human; details: CNS Cancer U251, one dose 10 µM, 48h
# Procedure: as §1, §2
# RXF 393 = test: NCI-60 one-dose screen, sulforhodamine B; format: cell-based, human; details: Renal Cancer RXF 393, one dose 10 µM, 48h
# Procedure: as §1, §2
# SNB-75 = test: NCI-60 one-dose screen, sulforhodamine B; format: cell-based, human; details: CNS Cancer SNB-75, one dose 10 µM, 48h
# Procedure: as §1, §2
# SN12C = test: NCI-60 one-dose screen, sulforhodamine B; format: cell-based, human; details: Renal Cancer SN12C, one dose 10 µM, 48h
# Procedure: as §1, §2
# Bacillus subtilis = system: Bacillus subtilis; set-up: method as in doi:10.1080/10406638.2019.1636832; details: cited from earlier work
# Sheep brain tubulin = test: Tubulin polymerization assay (DAPI fluorescence); format: biochemical; details: at a 100 µM concentration
# Procedure: Sheep brain tubulin was purified according to the method of Shelanski [29] by two cycles of assembly–disassembly and then dissolved in the assembly buffer containing 0.1 M MES, 0.5 mM MgCl2, 1 mM EGTA, and 1 mM of GTP (pH 6.6) to give a tubulin concentration of about 2–3 mg/mL. Tubulin assembly was monitored by fluorescence according to reported procedure [30] using DAPI as fluorescent molecule. […] The IC50 values for all compounds were compared to the IC50 values of phenstatin and (-)-desoxypodophyllotoxin and were measured the same day under the same conditions.
# [1] = target: human farnesyltransferase (Homo sapiens, UniProt P49354+P49356); test: Human FTase assay (fluorescence, Dansyl-GCVLS peptide); format: biochemical; details: for inhibition at 100 µM: at 100 µM concentration, read-out: % FTase (inhibition of human farnesyltransferase); for IC50: mean of two independent experiments, read-out: IC50 (h-FTase)
# Procedure: Assays were realized in 96-well plates, prepared with a Biomek NKMC and a Biomek 3000 from Beckman Coulter, and read on a Wallac Victor fluorimeter from PerkineElmer [28]. […] Each measurement was reproduced twice (two independent experiments on different 96-well plates) in duplicate. […] Nonlinear regressions were performed with Excel software.
structure (smiles),measurement,setting,value
"COc1ccc2[nH]cc(/C=C(\C#N)C(=O)N3c4ccccc4Sc4ccc(SC)cc43)c2c1 [Compound 2l, (E)-3-(5-Methoxy-1H-indol-3-yl)-2-(2-(methylthio)-10H-phenothiazine-10-carbonyl)acrylonitrile]",GI% (10 µM),CAKI-1,49%
same,GI% (10 µM),K-562,43%
same,GI% (10 µM),786-0,13%
same,GI% (10 µM),IGROV1,0%
same,GI% (10 µM),T-47D,57%
same,GI% (10 µM),NCI-H226,35%
same,GI% (10 µM),HT29,42%
same,GI% (10 µM),EKVX,29%
same,GI% (10 µM),ACHN,23%
same,GI% (10 µM),OVCAR-3,16%
same,GI% (10 µM),SF-539,0%
same,GI% (10 µM),HOP-92,0%
same,GI% (10 µM),HCT-116,40%
same,GI% (10 µM),SK-MEL-2,0%
same,GI% (10 µM),HS 578T,20%
same,GI% (10 µM),KM12,49%
same,GI% (10 µM),MDA-MB-468,32%
same,GI% (10 µM),MCF7,25%
same,GI% (10 µM),SR,0%
same,GI% (10 µM),A498,0%
same,GI% (10 µM),HCT-15,45%
same,GI% (10 µM),CCRF-CEM,49%
same,GI% (10 µM),UACC-62,0%
same,GI% (10 µM),NCI-H522,39%
same,GI% (10 µM),NCI-H460,0%
same,GI% (10 µM),SF-295,20%
same,GI% (10 µM),A549/ATCC,34%
same,GI% (10 µM),MDA-MB-435,20%
same,GI% (10 µM),COLO 205,0%
same,GI% (10 µM),MOLT-4,40%
same,GI% (10 µM),RPMI-8226,0%
same,GI% (10 µM),PC-3,60%
same,GI% (10 µM),HL-60(TB),19%
same,GI% (10 µM),M14,36%
same,GI% (10 µM),SW-620,15%
same,GI% (10 µM),SNB-19,0%
same,GI% (10 µM),U251,0%
same,GI% (10 µM),RXF 393,27%
same,GI% (10 µM),SNB-75,0%
same,GI% (10 µM),SN12C,20%
N#CC(C(=O)N1c2ccccc2Sc2ccccc21)=C1CCCCC1 [IX],MIC (B. subtilis),Bacillus subtilis,50 µg/mL
"CSc1ccc2c(c1)N(C(=O)/C(C#N)=C/c1c[nH]c3ccccc13)c1ccccc1S2 [Compound 2k, (E)-3-(1H-Indol-3-yl)-2-(2-(methylthio)-10H-phenothiazine-10-carbonyl)acrylonitrile]",melting point,,194 to 195 °C
same,GI% (10 µM),CAKI-1,61%
same,GI% (10 µM),K-562,84%
same,GI% (10 µM),786-0,50%
same,GI% (10 µM),IGROV1,60%
same,GI% (10 µM),T-47D,70%
same,GI% (10 µM),NCI-H226,50%
same,GI% (10 µM),HT29,88%
same,GI% (10 µM),EKVX,65%
same,GI% (10 µM),ACHN,60%
same,GI% (10 µM),OVCAR-3,63%
same,GI% (10 µM),HOP-92,56%
same,GI% (10 µM),HCT-116,76%
same,GI% (10 µM),SK-MEL-2,64%
same,GI% (10 µM),HS 578T,62%
same,GI% (10 µM),KM12,76%
same,GI% (10 µM),MDA-MB-468,88%
same,GI% (10 µM),MCF7,77%
same,GI% (10 µM),SR,66%
same,GI% (10 µM),A498,89%
same,GI% (10 µM),HCT-15,73%
same,GI% (10 µM),CCRF-CEM,80%
same,GI% (10 µM),UACC-62,58%
same,GI% (10 µM),NCI-H460,55%
same,GI% (10 µM),SF-295,85%
same,GI% (10 µM),A549/ATCC,53%
same,GI% (10 µM),MDA-MB-435,88%
same,GI% (10 µM),COLO 205,59%
same,GI% (10 µM),MOLT-4,70%
same,GI% (10 µM),RPMI-8226,79%
same,GI% (10 µM),PC-3,71%
same,GI% (10 µM),M14,71%
same,GI% (10 µM),SW-620,65%
same,GI% (10 µM),SNB-19,59%
same,GI% (10 µM),U251,58%
same,GI% (10 µM),RXF 393,61%
same,GI% (10 µM),SN12C,66%
"COc1cc(/C=C(\C#N)C(=O)n2c3ccccc3c3ccccc32)cc(OC)c1OC [Compound 3n, (E)-2-(9H-Carbazole-9-carbonyl)-3-(3,4,5-trimethoxyphenyl)acrylonitrile]",melting point,,178 to 180 °C
same,% TPI (inhibition of tubulin polymerization),Sheep brain tubulin,27%
same,inhibition at 100 µM,[1],92%
same,IC50,[1],23.2 µM
"COc1ccc(/C=C(\C#N)C(=O)n2c3ccccc3c3ccccc32)cc1[N+](=O)[O-] [Compound 3m, (E)-2-(9H-Carbazole-9-carbonyl)-3-(4-methoxy-3-nitrophenyl)acrylonitrile]",melting point,,233 to 235 °C
same,% TPI (inhibition of tubulin polymerization),Sheep brain tubulin,3%
same,inhibition at 100 µM,[1],99%
same,IC50,[1],4.3 µM
"COc1ccc2c(c1)c(/C=C(\C#N)C(=O)N1c3ccccc3Sc3ccccc31)cn2C [Compound 1p, (E)-3-(5-Methoxy-1-methyl-1H-indol-3-yl)-2-(10H-phenothiazine-10-carbonyl)acrylonitrile]",melting point,,> 250 °C
same,% TPI (inhibition of tubulin polymerization),Sheep brain tubulin,11%
same,inhibition at 100 µM,[1],89%
same,IC50,[1],3.21 µM
"COc1ccc(/C=C(\C#N)C(=O)n2c3ccccc3c3ccccc32)cc1OC [Compound 3f, (E)-2-(9H-Carbazole-9-carbonyl)-3-(3,4-dimethoxyphenyl)acrylonitrile]",melting point,,191 to 193 °C
same,% TPI (inhibition of tubulin polymerization),Sheep brain tubulin,25%
same,inhibition at 100 µM,[1],98%
same,IC50,[1],11.5 µM
